Measurements: ChEMBL document CHEMBL6096697, “Structure-Guided Discovery of Novel N4-(Substituted Thiazol-2-yl)-N2-(4-Substituted phenyl)pyrimidine-2,4-Diamines as Potent CDK2 and CDK9 Dual Inhibitors with High Oral Bioavailability” (J Med Chem, 2025)
pIC50: −log10 of the molar value.

Target: Cyclin-dependent kinase 2/cyclin A (Homo sapiens) (UniProt P24941+P20248+P78396)
Test: Inhibition of CDK2/cyclin A (unknown origin) using […] at 1 uM incubated for 40 mins in presence of ATP by Kinase-Glo assay relative to control
Assay type: protein-complex assay
Conditions: not given

SMILES | inhibition
COc1ccc(Nc2nccc(Nc3ncco3)n2)cc1 | 60%
Fc1ccc(Nc2nccc(Nc3nccs3)n2)cc1 | 9%
COC(=O)c1sc(Nc2ccnc(Nc3ccc(S(N)(=O)=O)cc3)n2)nc1C | 67%
CCOC(=O)c1cnc(Nc2nc(Nc3ccc(S(N)(=O)=O)cc3)ncc2F)s1 | 79%
COc1cc(Nc2nccc(Nc3nccs3)n2)cc(OC)c1OC | 30%
CCOC(=O)c1cnc(Nc2nc(Nc3ccc(S(N)(=O)=O)cc3)ncc2OC)s1 | 36%
Brc1ccc(Nc2nccc(Nc3nccs3)n2)cc1 | 17%
c1ccc(Nc2nccc(Nc3nccs3)n2)cc1 | 61%
COC(=O)c1sc(Nc2nc(Nc3ccc(S(N)(=O)=O)cc3)ncc2OC)nc1C | 44%
CC(C)c1ccc(-c2csc(Nc3nc(Nc4ccc(S(N)(=O)=O)cc4)ncc3F)n2)cc1 | 65%
COc1ccc(Nc2nccc(Nc3cc[nH]n3)n2)cc1 | 47%
Cc1cnc(Nc2ccc(S(N)(=O)=O)cc2)nc1Nc1nc(-c2ccc(C(C)C)cc2)cs1 | 84%
CC(C)c1ccc(-c2csc(Nc3ccnc(Nc4ccc(S(N)(=O)=O)cc4)n3)n2)cc1 | 59%

More lines, now with the values ahead:

inhibition | SMILES
78% | Cc1cnc(Nc2nc(Nc3ccc(S(N)(=O)=O)cc3)ncc2C)s1
85% | CNS(=O)(=O)c1ccc(Nc2ncc(C)c(Nc3nccs3)n2)cc1
76% | Cc1cnc(Nc2ccc(S(=O)(=O)NC3CC3)cc2)nc1Nc1nccs1
79% | Cc1cnc(Nc2ccc(S(=O)(=O)N3CCOCC3)cc2)nc1Nc1nccs1
82% | CCOC(=O)c1cnc(Nc2nc(Nc3ccc(S(N)(=O)=O)cc3)ncc2C)s1
81% | Cc1cnc(Nc2ccc(S(=O)(=O)NC(C)C)cc2)nc1Nc1nccs1
85% | Cc1csc(Nc2ccnc(Nc3ccc(S(N)(=O)=O)cc3)n2)n1
72% | COc1cnc(Nc2ccc(S(N)(=O)=O)cc2)nc1Nc1ncc(C)s1
81% | CCOC(=O)c1sc(Nc2nc(Nc3ccc(S(N)(=O)=O)cc3)ncc2C)nc1C

Target: CDK9/cyclin T1 (Homo sapiens) (UniProt O60563+P50750)
Test: Inhibition of CDK9/cyclin T (unknown origin) using […] at 1 uM incubated for 40 mins in presence of ATP by Kinase-Glo assay relative to control
Assay type: protein-complex assay
Conditions: not given

SMILES | inhibition
COc1ccc(Nc2nccc(Nc3ncco3)n2)cc1 | 21%
Fc1ccc(Nc2nccc(Nc3nccs3)n2)cc1 | 6%
COC(=O)c1sc(Nc2ccnc(Nc3ccc(S(N)(=O)=O)cc3)n2)nc1C | 31%
CCOC(=O)c1cnc(Nc2nc(Nc3ccc(S(N)(=O)=O)cc3)ncc2F)s1 | 40%
COc1cc(Nc2nccc(Nc3nccs3)n2)cc(OC)c1OC | 49%
CCOC(=O)c1cnc(Nc2nc(Nc3ccc(S(N)(=O)=O)cc3)ncc2OC)s1 | 32%
Brc1ccc(Nc2nccc(Nc3nccs3)n2)cc1 | 15%
c1ccc(Nc2nccc(Nc3nccs3)n2)cc1 | 18%
COC(=O)c1sc(Nc2nc(Nc3ccc(S(N)(=O)=O)cc3)ncc2OC)nc1C | 19%
CC(C)c1ccc(-c2csc(Nc3nc(Nc4ccc(S(N)(=O)=O)cc4)ncc3F)n2)cc1 | 27%
COc1ccc(Nc2nccc(Nc3cc[nH]n3)n2)cc1 | 29%
Cc1cnc(Nc2ccc(S(N)(=O)=O)cc2)nc1Nc1nc(-c2ccc(C(C)C)cc2)cs1 | 83%
CC(C)c1ccc(-c2csc(Nc3ccnc(Nc4ccc(S(N)(=O)=O)cc4)n3)n2)cc1 | 63%

The next lines start with the values.

inhibition | SMILES
4% | Cc1cnc(Nc2ccc(S(=O)(=O)N3CCCCC3)cc2)nc1Nc1nccs1
19% | CNS(=O)(=O)c1ccc(Nc2ncc(C)c(Nc3nccs3)n2)cc1
62% | Cc1cnc(Nc2ccc(S(=O)(=O)NC3CC3)cc2)nc1Nc1nccs1
7% | Cc1cnc(Nc2ccc(S(=O)(=O)N3CCOCC3)cc2)nc1Nc1nccs1
79% | CCOC(=O)c1cnc(Nc2nc(Nc3ccc(S(N)(=O)=O)cc3)ncc2C)s1
31% | Cc1cnc(Nc2ccc(S(=O)(=O)NC(C)C)cc2)nc1Nc1nccs1
76% | Cc1csc(Nc2ccnc(Nc3ccc(S(N)(=O)=O)cc3)n2)n1
75% | COc1cnc(Nc2ccc(S(N)(=O)=O)cc2)nc1Nc1ncc(C)s1
83% | CCOC(=O)c1sc(Nc2nc(Nc3ccc(S(N)(=O)=O)cc3)ncc2C)nc1C

Target: Cyclin-dependent kinase 2/cyclin A (Homo sapiens, UniProt P24941)
Test: Inhibition of CDK2/cyclin A (unknown origin) using […] incubated for 40 mins in presence of ATP by Kinase-Glo assay
Assay type: protein-complex assay
Conditions: not given

pIC50 | SMILES
7.59 | Cc1cnc(Nc2ccc(S(=O)(=O)N3CCCCC3)cc2)nc1Nc1nccs1

Target: not listed separately
Test: Inhibition of CDK9/cyclin T (unknown origin) using […] incubated for 40 mins in presence of ATP by Kinase-Glo assay
Parameters: species or system Homo sapiens
Conditions: not given

pIC50 | SMILES
8.70 | Cc1cnc(Nc2nc(Nc3ccc(S(N)(=O)=O)cc3)ncc2C)s1

Tested on: HCT-116
Test: Cytotoxicity against human HCT-116 cells assessed as cell growth inhibition incubated for 48 hrs by MTT assay
Assay type: functional, cell-based
Conditions: HCT-116, 48 h

SMILES | pIC50
Cc1cnc(Nc2ccc(S(=O)(=O)N3CCCCC3)cc2)nc1Nc1nccs1 | 5.52
COc1ccc(Nc2nccc(Nc3ncco3)n2)cc1 | < 5.00
Cc1cnc(Nc2nc(Nc3ccc(S(N)(=O)=O)cc3)ncc2C)s1 | 6.16
Fc1ccc(Nc2nccc(Nc3nccs3)n2)cc1 | < 5.00
COC(=O)c1sc(Nc2ccnc(Nc3ccc(S(N)(=O)=O)cc3)n2)nc1C | 5.06
CCOC(=O)c1cnc(Nc2nc(Nc3ccc(S(N)(=O)=O)cc3)ncc2F)s1 | 5.13
CNS(=O)(=O)c1ccc(Nc2ncc(C)c(Nc3nccs3)n2)cc1 | < 5.00
Cc1cnc(Nc2ccc(S(=O)(=O)NC3CC3)cc2)nc1Nc1nccs1 | 5.02
COc1cc(Nc2nccc(Nc3nccs3)n2)cc(OC)c1OC | < 5.00
CCOC(=O)c1cnc(Nc2nc(Nc3ccc(S(N)(=O)=O)cc3)ncc2OC)s1 | < 5.00
Cc1cnc(Nc2ccc(S(=O)(=O)N3CCOCC3)cc2)nc1Nc1nccs1 | < 5.00
Brc1ccc(Nc2nccc(Nc3nccs3)n2)cc1 | 5.16
c1ccc(Nc2nccc(Nc3nccs3)n2)cc1 | < 5.00
COC(=O)c1sc(Nc2nc(Nc3ccc(S(N)(=O)=O)cc3)ncc2OC)nc1C | < 5.00
CC(C)c1ccc(-c2csc(Nc3nc(Nc4ccc(S(N)(=O)=O)cc4)ncc3F)n2)cc1 | < 5.00
CCOC(=O)c1cnc(Nc2nc(Nc3ccc(S(N)(=O)=O)cc3)ncc2C)s1 | 5.34
Cc1cnc(Nc2ccc(S(=O)(=O)NC(C)C)cc2)nc1Nc1nccs1 | < 5.00
Cc1csc(Nc2ccnc(Nc3ccc(S(N)(=O)=O)cc3)n2)n1 | < 5.00
COc1ccc(Nc2nccc(Nc3cc[nH]n3)n2)cc1 | < 5.00
COc1cnc(Nc2ccc(S(N)(=O)=O)cc2)nc1Nc1ncc(C)s1 | 5.01
Cc1cnc(Nc2ccc(S(N)(=O)=O)cc2)nc1Nc1nc(-c2ccc(C(C)C)cc2)cs1 | 5.51
CC(C)c1ccc(-c2csc(Nc3ccnc(Nc4ccc(S(N)(=O)=O)cc4)n3)n2)cc1 | 5.19
CCOC(=O)c1sc(Nc2nc(Nc3ccc(S(N)(=O)=O)cc3)ncc2C)nc1C | < 5.00
